Measured values as given in ChEMBL document CHEMBL1129671, “Substituted (pyrroloamino)pyridines: potential agents for the treatment of Alzheimer's disease” (J Med Chem, 1996).

Legend:
Mus musculus [1] = experiment: Evaluated for the prevention of TBZ ptosis by intraperitoneal administration in mice; type: functional; settings: ip
Mus musculus [2] = experiment: Antagonistic activity against scopolamine-induced behavioral deficits in mice by subcutaneous administration at a concentration of 0.31 mg/kg; type: functional
Mus musculus [3] = experiment: Antagonistic activity against scopolamine-induced behavioral deficits in mice by subcutaneous administration at a concentration of 0.63 mg/kg; type: functional
Mus musculus [4] = experiment: Antagonistic activity against scopolamine-induced behavioral deficits in mice by subcutaneous administration at a concentration of 1.25 mg/kg; type: functional
Mus musculus [5] = experiment: Antagonistic activity against scopolamine-induced behavioral deficits in mice by subcutaneous administration at a concentration of 2.5 mg/kg; type: functional
Mus musculus [6] = experiment: Antagonistic activity against scopolamine-induced behavioral deficits in mice by subcutaneous administration at a concentration of 5.0 mg/kg; type: functional
[7] = biological target: Muscarinic acetylcholine receptor; experiment: Inhibition of radioligand [3H]QNB binding (competitive inhibition) to muscarinic acetylcholine receptor in the rat forebrain in the absence of zinc
[8] = biological target: Muscarinic acetylcholine receptor; experiment: Inhibition of radioligand [3H]QNB binding to muscarinic acetylcholine receptor in the rat forebrain in the presence of zinc
[9] = biological target: T1, Muscarinic acetylcholine receptor M1 (Rattus norvegicus, UniProt P08482); experiment: Compound was tested for inhibition of [3H]pirenzepine binding against Muscarinic acetylcholine receptor M1 from rat cortical membranes using in vitro cholinergic receptor binding assay.; type: cell membranes, Membrane
T1 sequence (P08482 whole entry): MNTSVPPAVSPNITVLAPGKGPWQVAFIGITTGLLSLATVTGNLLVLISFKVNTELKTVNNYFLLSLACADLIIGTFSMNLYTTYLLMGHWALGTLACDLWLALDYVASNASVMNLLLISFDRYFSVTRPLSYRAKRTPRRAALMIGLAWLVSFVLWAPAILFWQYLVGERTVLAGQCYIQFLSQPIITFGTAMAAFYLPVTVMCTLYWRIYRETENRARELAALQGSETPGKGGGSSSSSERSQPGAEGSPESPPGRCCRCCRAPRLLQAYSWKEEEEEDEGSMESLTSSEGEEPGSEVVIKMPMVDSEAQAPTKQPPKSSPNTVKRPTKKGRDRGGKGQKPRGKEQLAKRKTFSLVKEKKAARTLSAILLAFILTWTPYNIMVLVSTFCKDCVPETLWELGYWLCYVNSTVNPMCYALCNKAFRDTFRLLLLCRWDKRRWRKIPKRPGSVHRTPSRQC

Rattus norvegicus = species: Rattus norvegicus; experiment: Compound was tested for inhibition of [3H]dopamine against rat striatum using in vitro biogenic amine uptake assay using rat brain synaptosomes.; type: functional

Q: What does the source list for C=Cc1cccn1N(C)c1ccncc1?
A: ED50 (Mus musculus [1]): 8.3 mg/kg; Response (Mus musculus [2]): 33%; Response (Mus musculus [3]): 33%; Response (Mus musculus [4]): 33%; Response (Mus musculus [5]): 27%; Response (Mus musculus [6]): 20%; IC50 [7]: 8.8 µM; IC50 [8]: 18 µM; IC50 [9]: 5.1 µM; IC50 (Rattus norvegicus): > 20 µM
